Test results published in the supplement of paper PMC10307832.

Assays:
Assay in all cases: relative viability (nuclei count vs DMSO), 5 days (fraction); higher = more cells survive
[1] = test system: LCLC-103H
Summary of the method: (§1)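 Relative viability is defined as nuclei in treated wells over nuclei in vehicle wells. Duplicate plates were run and medians reported. Lung cancer cell lines in 1536-well plates were dosed by pin tool one day after seeding, with one drug or with a fixed anchor-drug dose plus five library-drug doses (not always all listed) in √10 steps, and nuclei were counted after 5 days.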

[2] = test system: LOU-NH91
Summary of the method: as §1

[3] = test system: NCI-H1734
Summary of the method: as §1

[4] = test system: NCI-H1355
Summary of the method: as §1

[5] = test system: NCI-H1666
Summary of the method: as §1

[6] = test system: NCI-H441
Summary of the method: as §1

[7] = test system: NCI-H1792
Summary of the method: as §1

[8] = test system: RERF-LC-KJ
Summary of the method: as §1

[9] = test system: SK-LU-1
Summary of the method: as §1

[10] = test system: H3255
Summary of the method: as §1

[11] = test system: NCI-H1975
Summary of the method: as §1

[12] = test system: NCI-H647
Summary of the method: as §1

[13] = test system: NCI-H1793
Summary of the method: as §1

[14] = test system: NCI-H1915
Summary of the method: as §1

[15] = test system: NCI-H1944
Summary of the method: as §1

[16] = test system: NCI-H1651
Summary of the method: as §1

[17] = test system: NCI-H2023
Summary of the method: as §1

[18] = test system: UMC-11
Summary of the method: as §1

[19] = test system: NCI-H2405
Summary of the method: as §1

[20] = test system: 201T
Summary of the method: as §1

[21] = test system: EPLC-272H
Summary of the method: as §1

## COCC1(CO)C(=O)C2CCN1CC2 (configuration not stated) [PRIMA-1MET] + C[C@]1(O)C[C@@H](c2nc(-c3ccc4ccc(-c5ccccc5)nc4c3)c3c(N)nccn32)C1 [Linsitinib] (partner 1 µM)
[1]; first compound 0.2 µM
  relative viability: 1.24
[1]; first compound 0.6325 µM
  relative viability: 0.956
[1]; first compound 2 µM
  relative viability: 0.905
[1]; first compound 6.325 µM
  relative viability: 1.12
[1]; first compound 20 µM
  relative viability: 1.1
[2]; first compound 0.2 µM
  relative viability: 1.02
[2]; first compound 0.6325 µM
  relative viability: 0.771
[2]; first compound 2 µM
  relative viability: 0.773
[2]; first compound 6.325 µM
  relative viability: 1.01
[2]; first compound 20 µM
  relative viability: 0.582
[3]; first compound 0.2 µM
  relative viability: 0.972
[3]; first compound 0.6325 µM
  relative viability: 0.808
[3]; first compound 2 µM
  relative viability: 0.824
[3]; first compound 6.325 µM
  relative viability: 0.818
[3]; first compound 20 µM
  relative viability: 0.51
[4]; first compound 0.2 µM
  relative viability: 0.998
[4]; first compound 0.6325 µM
  relative viability: 0.796
[4]; first compound 2 µM
  relative viability: 0.68
[4]; first compound 6.325 µM
  relative viability: 0.81
[4]; first compound 20 µM
  relative viability: 0.76
[5]; first compound 0.2 µM
  relative viability: 0.794
[5]; first compound 0.6325 µM
  relative viability: 0.781
[5]; first compound 2 µM
  relative viability: 0.833
[5]; first compound 6.325 µM
  relative viability: 0.742
[5]; first compound 20 µM
  relative viability: 0.134
[6]; first compound 0.2 µM
  relative viability: 0.556
[6]; first compound 0.6325 µM
  relative viability: 0.517
[6]; first compound 2 µM
  relative viability: 0.458
[6]; first compound 6.325 µM
  relative viability: 0.524
[6]; first compound 20 µM
  relative viability: 0.24
[7]; first compound 0.2 µM
  relative viability: 0.521
[7]; first compound 0.6325 µM
  relative viability: 0.477
[7]; first compound 2 µM
  relative viability: 0.368
[7]; first compound 6.325 µM
  relative viability: 0.578
[7]; first compound 20 µM
  relative viability: 0.53
[8]; first compound 0.2 µM
  relative viability: 0.961
[8]; first compound 0.6325 µM
  relative viability: 0.955
[8]; first compound 2 µM
  relative viability: 0.832
[8]; first compound 6.325 µM
  relative viability: 0.922
[8]; first compound 20 µM
  relative viability: 0.875
[9]; first compound 0.2 µM
  relative viability: 1.24
[9]; first compound 0.6325 µM
  relative viability: 1.03
[9]; first compound 2 µM
  relative viability: 1.14
[9]; first compound 6.325 µM
  relative viability: 1.06
[9]; first compound 20 µM
  relative viability: 0.458
[10]; first compound 0.2 µM
  relative viability: 1.13
[10]; first compound 0.6325 µM
  relative viability: 1.01
[10]; first compound 2 µM
  relative viability: 0.8
[10]; first compound 6.325 µM
  relative viability: 1.01
[10]; first compound 20 µM
  relative viability: 0.918
[11]; first compound 0.2 µM
  relative viability: 1.14
[11]; first compound 0.6325 µM
  relative viability: 0.838
[11]; first compound 2 µM
  relative viability: 0.875
[11]; first compound 6.325 µM
  relative viability: 1
[11]; first compound 20 µM
  relative viability: 0.826
[12]; first compound 0.2 µM
  relative viability: 1.42
[12]; first compound 0.6325 µM
  relative viability: 1.16
[12]; first compound 2 µM
  relative viability: 1.18
[12]; first compound 6.325 µM
  relative viability: 1.42
[12]; first compound 20 µM
  relative viability: 1.18
[13]; first compound 0.2 µM
  relative viability: 0.878
[13]; first compound 0.6325 µM
  relative viability: 0.777
[13]; first compound 6.325 µM
  relative viability: 1.04
[13]; first compound 20 µM
  relative viability: 0.581
[14]; first compound 0.2 µM
  relative viability: 1.26
[14]; first compound 0.6325 µM
  relative viability: 0.933
[14]; first compound 2 µM
  relative viability: 1.03
[14]; first compound 6.325 µM
  relative viability: 1.11
[14]; first compound 20 µM
  relative viability: 1.08
[15]; first compound 0.2 µM
  relative viability: 1.27
[15]; first compound 0.6325 µM
  relative viability: 0.95
[15]; first compound 6.325 µM
  relative viability: 1.27
[15]; first compound 20 µM
  relative viability: 1.17
[16]; first compound 0.2 µM
  relative viability: 1.13
[16]; first compound 0.6325 µM
  relative viability: 0.981
[16]; first compound 2 µM
  relative viability: 0.907
[16]; first compound 6.325 µM
  relative viability: 0.955
[16]; first compound 20 µM
  relative viability: 0.839
[17]; first compound 0.2 µM
  relative viability: 0.784
[17]; first compound 0.6325 µM
  relative viability: 0.65
[17]; first compound 2 µM
  relative viability: 0.7
[17]; first compound 6.325 µM
  relative viability: 0.668
[17]; first compound 20 µM
  relative viability: 0.609
[18]; first compound 0.2 µM
  relative viability: 1.11
[18]; first compound 0.6325 µM
  relative viability: 0.887
[18]; first compound 2 µM
  relative viability: 1.04
[18]; first compound 6.325 µM
  relative viability: 0.97
[18]; first compound 20 µM
  relative viability: 0.94
[19]; first compound 0.2 µM
  relative viability: 0.635
[19]; first compound 0.6325 µM
  relative viability: 1.01
[19]; first compound 6.325 µM
  relative viability: 0.727
[19]; first compound 20 µM
  relative viability: 0.0877
[20]; first compound 0.2 µM
  relative viability: 1.11
[20]; first compound 0.6325 µM
  relative viability: 1.05
[20]; first compound 2 µM
  relative viability: 0.934
[20]; first compound 6.325 µM
  relative viability: 1.11
[20]; first compound 20 µM
  relative viability: 1
[21]; first compound 0.2 µM
  relative viability: 1.26
[21]; first compound 0.6325 µM
  relative viability: 1.01
[21]; first compound 2 µM
  relative viability: 1.06
[21]; first compound 6.325 µM
  relative viability: 1.2
[21]; first compound 20 µM
  relative viability: 0.973
